Values quoted from earlier work in US8828415B2, “Microcapsules with acetylene carbamide-polyurea polymers and formulations thereof for controlled release” (priority 2006, dated 2014).

Tests used:
[1] = for cancer (Ames test): MSDS of Sigma-Aldrich and CYTEC
mice = conditions: for 4 h

Row | SMILES | affects respiratory system in humans at long term (3 y) (humans) | cancer (Ames test) [1] | pulmonary sensitization in guinea pigs (guinea pigs) | acute inhalation toxicity (LC50) (mice) | cancer: CMR category ([1]; MSDS) | cancer: IARC classification ([1]; MSDS)
1 | CC(C)(N=C=O)c1cccc(C(C)(C)N=C=O)c1 [TMXDI, alpha-, alpha-, alpha-, alpha-tetramethyl xylylene diisocyanate] | no | not carcinogenic | no | 27 ppm for 4 h - |  | 
2 | Cc1ccc(N=C=O)cc1N=C=O [TDI, 2,4-toluenediisocyanate] | Yes | carcinogenic (Ames test) | Yes | 10 ppm for 4 h - mice | CMR Cat. Carcinogen 3 | IARC carrcinogen 2B
